Measurements published in ChEMBL document CHEMBL5137070, “N-2-(Phenylamino) Benzamide Derivatives as Dual Inhibitors of COX-2 and Topo I Deter Gastrointestinal Cancers via Targeting Inflammation and Tumor Progression” (J Med Chem, 2022).
Activity calls are given as the source filed them. No cut-off for these calls is given here.

Experiments:
[1] = system: CT26.WT; test: Antiproliferative activity against mouse CT26.WT cells assessed as reduction in cell proliferation incubated for 48 hrs by MTT assay; type: functional, cell-based
[2] = system: HT-29; test: Antiproliferative activity against human HT-29 cells assessed as reduction in cell proliferation incubated for 48 hrs by MTT assay; type: functional, cell-based; settings: HT-29, 48 h
[3] = system: HGC-27; test: Antiproliferative activity against human HGC-27 cells assessed as reduction in cell proliferation incubated for 48 hrs by MTT assay; type: functional, cell-based; settings: HGC-27, 48 h
[4] = system: SGC-7901; test: Antiproliferative activity against human SGC-7901 cells assessed as reduction in cell proliferation incubated for 48 hrs by MTT assay; type: functional, cell-based; settings: SGC-7901, 48 h
[5] = system: RKO; test: Antiproliferative activity against human RKO cells assessed as clone formation at 0.04 to 3.3 uM incubated for 4 days by crystal violet staining based analysis; type: functional, cell-based; settings: dose 0.04-3.3 µM, time 4.0 day
[6] = system: HGC-27; test: Effect on cell morphology in human HGC-27 cells assessed as appearance of round cells at 10 uM incubated for 48 hrs by giemsa staining based microscopic analysis; type: functional
[7] = system: HGC-27; test: Effect on cell morphology in human HGC-27 cells assessed as lose of adherence at 10 uM incubated for 48 hrs by giemsa staining based microscopic analysis; type: functional
[8] = system: RKO; test: Effect on cell morphology in human RKO cells assessed as lose of adherence at 10 uM incubated for 48 hrs by giemsa staining based microscopic analysis; type: functional
[9] = system: RKO; test: Effect on cell morphology in human RKO cells assessed as contracted nucleus at 10 uM incubated for 48 hrs by giemsa staining based microscopic analysis; type: functional
[10] = system: HGC-27; test: Induction of apoptosis in human HGC-27 cells assessed as increase in caspase-3 activity at 1.1 to 10 uM incubated for 36 hrs by flow cytometry; type: functional, cell-based; settings: dose 1.1-10 µM, DDE = dose-dependent effect
[11] = system: HGC-27; test: Induction of apoptosis in human HGC-27 cells assessed as increase in Bax/Bcl-2 ratio expression at 1.1 to 10 uM incubated for 24 hrs by western blot assay; type: functional, cell-based; settings: dose 1.1-10 µM
[12] = system: RKO; test: Induction of apoptosis in human RKO cells assessed as increase in cleaved caspase-3 expression at 1.1 to 10 uM incubated for 24 hrs by western blot assay; type: functional, cell-based; settings: dose 1.1-10 µM
[13] = system: HGC-27; test: Induction of apoptosis in human HGC-27 cells assessed as increase in cleaved caspase-3 expression at 1.1 to 10 uM incubated for 24 hrs by western blot assay; type: functional, cell-based; settings: dose 1.1-10 µM
[14] = system: HGC-27; test: Induction of apoptosis in human HGC-27 cells assessed as increase in cleaved caspase-9 expression at 1.1 to 10 uM incubated for 24 hrs by western blot assay; type: functional, cell-based; settings: dose 1.1-10 µM
[15] = system: RKO; test: Induction of apoptosis in human RKO cells assessed as increase in cytochrome C level at 1.1 to 10 uM incubated for 24 hrs by western blot assay; type: functional, cell-based; settings: dose 1.1-10 µM
[16] = system: RKO; test: Induction of cell cycle arrest in human RKO cells assessed as accumulation at G2/M phase at 3.3 to 10 uM for 24 hrs by propidium iodide staining based flow cytometry; type: functional; settings: dose 3.3-10 µM
[17] = system: HGC-27; test: Induction of cell cycle arrest in human HGC-27 cells assessed as accumulation at G2/M phase at 3.3 to 10 uM for 24 hrs by propidium iodide staining based flow cytometry; type: functional; settings: dose 3.3-10 µM
[18] = system: RKO; test: Antiproliferative activity against human RKO cells assessed as cell viability at <= 0.41 uM for 48 hrs by MTT assay; type: functional; settings: up to 0.41 µM
[19] = system: HGC-27; test: Antiproliferative activity against human HGC-27 cells assessed as cell viability at <= 0.41 uM for 48 hrs by MTT assay; type: functional; settings: up to 0.41 µM
[20] = system: CT26.WT; test: Antiproliferative activity against mouse CT26.WT cells assessed as cell viability at 1.23 uM for 48 hrs by MTT assay; type: functional; settings: read-out: Activity
[21] = system: HGC-27; test: Anti-migration activity against human HGC-27 cells assessed as decrease in cell migration rate at 0.37 uM for 48 hrs by crystalline violet staining based assay; type: functional
[22] = system: RKO; test: Anti-metastasis activity against human RKO cells assessed as reduction in MMP-9 expression level at 3.3 to 10 uM for 24 hrs by western blot analysis; type: functional, cell-based; settings: dose 3.3-10 µM
[23] = system: HGC-27; test: Anti-metastasis activity against human HGC-27 cells assessed as reduction in MMP-9 expression level at 3.3 to 10 uM for 24 hrs by western blot analysis; type: functional, cell-based; settings: dose 3.3-10 µM
[24] = biological target: T1, Nuclear factor NF-kappa-B complex (Homo sapiens) (UniProt Q00653+P19838+Q04206); test: Inhibition of NF-kappaB activation in human HT-29 cells assessed as reduction in TNFalpha-stimulated NF-kappaB nuclear translocation at 10 uM for 24 hrs followed by TNF- alpha stimulation for 1 hrs by DAPI staining based immunofluorescence assay; type: cell-based; settings: time 25.0 hrs
T1 sequence (P19838 whole entry, looked up): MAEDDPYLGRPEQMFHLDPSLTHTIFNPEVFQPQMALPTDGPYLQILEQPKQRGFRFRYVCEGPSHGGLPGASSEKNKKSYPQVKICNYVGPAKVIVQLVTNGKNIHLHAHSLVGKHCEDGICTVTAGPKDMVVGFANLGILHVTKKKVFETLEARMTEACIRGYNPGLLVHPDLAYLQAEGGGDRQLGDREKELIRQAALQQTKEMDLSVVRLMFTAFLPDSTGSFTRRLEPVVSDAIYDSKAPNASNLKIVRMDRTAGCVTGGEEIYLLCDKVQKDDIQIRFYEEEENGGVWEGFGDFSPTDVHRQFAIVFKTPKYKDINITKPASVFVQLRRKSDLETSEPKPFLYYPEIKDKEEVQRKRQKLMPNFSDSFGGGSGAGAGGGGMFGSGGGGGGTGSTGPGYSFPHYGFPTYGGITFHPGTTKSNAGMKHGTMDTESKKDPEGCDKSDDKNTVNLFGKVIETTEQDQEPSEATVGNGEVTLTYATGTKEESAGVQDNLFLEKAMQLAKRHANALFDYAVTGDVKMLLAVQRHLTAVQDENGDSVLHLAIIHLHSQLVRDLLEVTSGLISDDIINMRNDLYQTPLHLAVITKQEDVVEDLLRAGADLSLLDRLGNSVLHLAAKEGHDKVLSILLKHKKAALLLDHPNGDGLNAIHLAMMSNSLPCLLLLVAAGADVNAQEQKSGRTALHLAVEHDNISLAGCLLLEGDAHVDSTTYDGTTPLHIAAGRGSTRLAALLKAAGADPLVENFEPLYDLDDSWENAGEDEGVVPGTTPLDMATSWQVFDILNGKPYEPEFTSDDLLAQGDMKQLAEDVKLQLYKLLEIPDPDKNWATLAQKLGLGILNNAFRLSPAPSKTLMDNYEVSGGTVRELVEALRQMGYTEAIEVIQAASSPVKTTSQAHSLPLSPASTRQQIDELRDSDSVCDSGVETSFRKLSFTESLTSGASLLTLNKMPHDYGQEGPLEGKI
T1 sequence (Q00653 whole entry, looked up): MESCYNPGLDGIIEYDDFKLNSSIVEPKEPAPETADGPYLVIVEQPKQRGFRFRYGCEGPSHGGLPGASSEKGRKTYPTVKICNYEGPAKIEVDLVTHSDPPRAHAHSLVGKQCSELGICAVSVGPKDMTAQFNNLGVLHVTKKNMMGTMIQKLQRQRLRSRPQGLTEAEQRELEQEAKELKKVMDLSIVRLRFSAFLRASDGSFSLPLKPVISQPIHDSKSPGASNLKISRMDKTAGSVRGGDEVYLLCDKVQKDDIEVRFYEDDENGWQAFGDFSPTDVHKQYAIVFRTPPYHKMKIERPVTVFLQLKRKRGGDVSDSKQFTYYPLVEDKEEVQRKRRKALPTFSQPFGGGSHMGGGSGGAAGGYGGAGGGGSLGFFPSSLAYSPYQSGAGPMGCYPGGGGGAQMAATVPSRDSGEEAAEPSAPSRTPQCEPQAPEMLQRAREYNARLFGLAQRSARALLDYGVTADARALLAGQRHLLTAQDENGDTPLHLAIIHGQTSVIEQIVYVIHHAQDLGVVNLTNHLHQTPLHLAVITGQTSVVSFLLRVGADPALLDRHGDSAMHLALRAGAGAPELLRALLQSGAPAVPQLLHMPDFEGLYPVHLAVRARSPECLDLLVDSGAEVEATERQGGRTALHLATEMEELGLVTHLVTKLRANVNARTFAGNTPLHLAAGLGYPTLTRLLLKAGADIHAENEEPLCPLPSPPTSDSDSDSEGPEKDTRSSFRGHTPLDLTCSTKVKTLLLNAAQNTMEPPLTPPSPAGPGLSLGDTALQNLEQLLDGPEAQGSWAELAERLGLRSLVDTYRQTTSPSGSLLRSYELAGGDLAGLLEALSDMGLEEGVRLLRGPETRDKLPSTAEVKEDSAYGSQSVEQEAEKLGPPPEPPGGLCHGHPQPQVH
T1 sequence (Q04206 whole entry, looked up): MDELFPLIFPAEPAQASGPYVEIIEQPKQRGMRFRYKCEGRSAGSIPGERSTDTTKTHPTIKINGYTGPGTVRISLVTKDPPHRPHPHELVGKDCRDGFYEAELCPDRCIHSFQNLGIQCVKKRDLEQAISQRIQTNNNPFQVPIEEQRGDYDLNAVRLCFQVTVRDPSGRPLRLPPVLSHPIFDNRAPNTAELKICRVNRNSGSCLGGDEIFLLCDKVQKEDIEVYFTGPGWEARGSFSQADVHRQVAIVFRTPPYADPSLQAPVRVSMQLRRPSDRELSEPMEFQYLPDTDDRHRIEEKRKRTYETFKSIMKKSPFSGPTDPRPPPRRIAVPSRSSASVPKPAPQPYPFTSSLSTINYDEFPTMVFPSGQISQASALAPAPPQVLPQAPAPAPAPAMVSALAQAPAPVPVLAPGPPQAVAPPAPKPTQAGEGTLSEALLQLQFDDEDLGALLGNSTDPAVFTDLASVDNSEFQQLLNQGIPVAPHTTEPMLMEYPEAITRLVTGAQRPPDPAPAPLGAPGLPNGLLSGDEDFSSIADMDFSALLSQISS

[25] = biological target: T1, Nuclear factor NF-kappa-B complex (Homo sapiens); test: Inhibition of NF-kappaB activation in human HGC-27 cells assessed as downregulation of NF-kappaB phosphorylation at 10 uM for 48 hrs by DAPI staining based immunofluorescence assay; type: cell-based
[26] = system: RAW264.7; test: Cytotoxicity against mouse RAW264.7 cells assessed as reduction in cell viability at <=11.11 for 24 hrs by MTT assay; type: toxicity, cell-based; settings: raw264.7, 24 h
[27] = system: RAW264.7; test: Inhibition of LPS induced NO production in mouse RAW264.7 cells at 6.6 uM incubated for 1 hrs followed by LPS stimulation and measured after 24 hrs by Griess reagent based assay; type: functional, cell-based; settings: time 25.0 hrs
[28] = Acute toxicity in Kunming mouse assessed as behavioral changes at 100 mg/kg,ip and measured upto 14 days; type: organism-based; settings: in vivo, 336 h, time < 14 day
[29] = Acute toxicity in Kunming mouse assessed as lethal dose at 100 mg/kg,ip and measured upto 14 days; type: organism-based; settings: in vivo, time < 14 day
[30] = Half in Sprague-Dawley rat at 100 mg/kg, ip and measured upto 8 hrs by LC-MS/MS analysis; type: ADME, organism-based; settings: in vivo
[31] = Cmax in Sprague-Dawley rat at 100 mg/kg, ip and measured upto 8 hrs by LC-MS/MS analysis; type: ADME, organism-based; design: time < 8 hrs, dose 100 mg/kg, route ip; settings: in vivo
[32] = AUC (0 to t) in Sprague-Dawley rat at 100 mg/kg, ip and measured upto 8 hrs by LC-MS/MS analysis; type: ADME, organism-based; design: dose 100 mg/kg, time < 8 hrs, route ip; settings: in vivo
[33] = system: CT26.WT; test: Anti-tumor activity against mouse CT26.WT xenografted in BALB/c mouse assessed as decrease in tumor weight at 100 mg/kg, ip twice daily and measured upto 14 days relative to control; type: functional, organism-based; settings: time <= 14.0 day
[34] = Toxicity in BALB/c mouse xenografted with mouse CT26.WT assessed as pathological changes in liver at 100 mg/kg, ip twice daily and measured after 14 days by hematoxylin and eosin staining based microscopic analysis; type: organism-based; settings: in vivo, 336 h, time 14 day
[35] = Toxicity in BALB/c mouse xenografted with mouse CT26.WT assessed as pathological changes in kidney at 100 mg/kg, ip twice daily and measured after 14 days by hematoxylin and eosin staining based microscopic analysis; type: organism-based; settings: in vivo, 336 h, time 14 day
[36] = system: CT26.WT; test: Anti-tumor activity against mouse CT26.WT xenografted in BALB/c mouse assessed as decrease in MMP-9 expression level in tumor tissue at 100 mg/kg, ip twice daily and measured after 14 days by immunohistochemical analysis; type: functional, organism-based; settings: time 14.0 day
[37] = system: RKO; test: Induction of apoptosis in human RKO cells assessed as increase in caspase-3 activity at 3.3 uM incubated for 36 hrs by flow cytometry (Rvb= 1.08%); type: functional

Cc1c(Cl)cccc1Nc1ccc(F)cc1C(=O)NCc1ccc(O)c(O)c1
IC50 [1]: 3.04 µM
IC50 [2]: 16.9 µM
IC50 [3]: 4.71 µM
IC50 [4]: 15 µM
Activity [5]: Active
Activity [6]: Active
Activity [7]: Active
Activity [8]: Active
Activity [9]: Active
Activity [10]: Dde
Activity [11]: Active
Activity [12]: Active
Activity [13]: Active
Activity [14]: Active
Activity [15]: Active
Activity [16]: Active
Activity [17]: Active
Activity [18]: >80%
Activity [19]: >80%
viability at 1.23 µM [20]: > 80%
Activity [21]: Active
Activity [22]: Active
Activity [23]: Active
inhibition [24]: Active
inhibition [25]: Active
Activity [26]: > 80%
inhibition [27]: Active
Activity [28]: Non-Toxic
LD50 at 336 h [29]: > 100 mg/kg
half-life [30]: 1.56 h
Cmax [31]: 20200 ng/mL
AUC(0-t) at 8 h [32]: 18200 ng·h/mL
Activity [33]: Active
Activity [34]: Non-Toxic
Activity [35]: Non-Toxic
Activity [36]: Active
Activity [37]: 55.24%
